Assay results reported in ChEMBL document CHEMBL1201862, “PubChem BioAssay data set” (2004).
The source made the active and inactive calls.

Key:
[1] = biological target: T1, Calpain-2 catalytic subunit (Sus scrofa, UniProt P43367); assay: pig calpain II inhibitor potency, dose response, biochemical, fluorogenic peptide substrate (AID 1420); format: functional
T1 sequence (P43367 whole entry): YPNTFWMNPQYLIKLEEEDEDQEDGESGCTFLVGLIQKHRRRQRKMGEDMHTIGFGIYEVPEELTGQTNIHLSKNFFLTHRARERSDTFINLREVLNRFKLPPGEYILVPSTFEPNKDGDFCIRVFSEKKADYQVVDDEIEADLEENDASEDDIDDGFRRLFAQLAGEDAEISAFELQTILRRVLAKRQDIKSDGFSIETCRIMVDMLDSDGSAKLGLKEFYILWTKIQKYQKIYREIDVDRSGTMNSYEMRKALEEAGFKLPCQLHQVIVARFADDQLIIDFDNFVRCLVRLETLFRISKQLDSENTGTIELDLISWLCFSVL

Vero = Vero cell cytotoxicity, cytotoxicity control for flavivirus capping enzyme inhibitors (AID 588742); format: functional; settings: Chlorocebus sabaeus
[2] = biological target: T2, Probable nicotinate-nucleotide adenylyltransferase (Staphylococcus aureus (strain N315), UniProt P65502); format: functional, Staphylococcus aureus subsp. aureus N315;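 on IC50 Mean: confirmatory dose-response retesting of NadD inhibitor hits first found in an ultra-high-throughput screen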
T2 sequence (P65502 whole entry): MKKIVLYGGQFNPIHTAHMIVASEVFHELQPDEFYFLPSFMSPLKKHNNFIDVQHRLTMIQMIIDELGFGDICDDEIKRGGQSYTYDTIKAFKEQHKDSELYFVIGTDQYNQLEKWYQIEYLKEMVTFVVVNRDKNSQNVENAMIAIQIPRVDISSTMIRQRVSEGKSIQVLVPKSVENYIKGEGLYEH

[3] = biological target: T2, Probable nicotinate-nucleotide adenylyltransferase; format: functional, Staphylococcus aureus subsp. aureus N315; settings: read-out: IC50_Mean
[4] = biological target: Peroxisome proliferator-activated receptor gamma/Nuclear receptor coactivator 2 (Homo sapiens, UniProt P37231); format: functional;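 further: agonist potency for raising coactivator recruitment to the receptor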
Chain of Peroxisome proliferator-activated receptor gamma/Nuclear receptor coactivator 2 (P37231 whole entry): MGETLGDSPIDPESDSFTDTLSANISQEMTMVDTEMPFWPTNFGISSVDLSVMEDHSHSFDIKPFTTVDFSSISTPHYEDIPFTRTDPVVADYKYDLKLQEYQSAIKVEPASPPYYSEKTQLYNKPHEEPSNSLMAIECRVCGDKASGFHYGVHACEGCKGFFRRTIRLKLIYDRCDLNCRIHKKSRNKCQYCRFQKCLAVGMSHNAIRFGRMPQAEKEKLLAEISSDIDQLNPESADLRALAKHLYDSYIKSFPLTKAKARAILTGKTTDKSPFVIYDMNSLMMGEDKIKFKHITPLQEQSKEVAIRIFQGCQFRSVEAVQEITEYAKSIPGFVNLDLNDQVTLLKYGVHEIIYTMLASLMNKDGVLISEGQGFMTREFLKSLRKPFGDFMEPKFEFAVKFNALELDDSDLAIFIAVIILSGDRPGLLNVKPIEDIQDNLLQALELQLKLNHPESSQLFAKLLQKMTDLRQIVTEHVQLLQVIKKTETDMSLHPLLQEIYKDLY
Chain of Peroxisome proliferator-activated receptor gamma/Nuclear receptor coactivator 2 (Q15596 whole entry, further chain): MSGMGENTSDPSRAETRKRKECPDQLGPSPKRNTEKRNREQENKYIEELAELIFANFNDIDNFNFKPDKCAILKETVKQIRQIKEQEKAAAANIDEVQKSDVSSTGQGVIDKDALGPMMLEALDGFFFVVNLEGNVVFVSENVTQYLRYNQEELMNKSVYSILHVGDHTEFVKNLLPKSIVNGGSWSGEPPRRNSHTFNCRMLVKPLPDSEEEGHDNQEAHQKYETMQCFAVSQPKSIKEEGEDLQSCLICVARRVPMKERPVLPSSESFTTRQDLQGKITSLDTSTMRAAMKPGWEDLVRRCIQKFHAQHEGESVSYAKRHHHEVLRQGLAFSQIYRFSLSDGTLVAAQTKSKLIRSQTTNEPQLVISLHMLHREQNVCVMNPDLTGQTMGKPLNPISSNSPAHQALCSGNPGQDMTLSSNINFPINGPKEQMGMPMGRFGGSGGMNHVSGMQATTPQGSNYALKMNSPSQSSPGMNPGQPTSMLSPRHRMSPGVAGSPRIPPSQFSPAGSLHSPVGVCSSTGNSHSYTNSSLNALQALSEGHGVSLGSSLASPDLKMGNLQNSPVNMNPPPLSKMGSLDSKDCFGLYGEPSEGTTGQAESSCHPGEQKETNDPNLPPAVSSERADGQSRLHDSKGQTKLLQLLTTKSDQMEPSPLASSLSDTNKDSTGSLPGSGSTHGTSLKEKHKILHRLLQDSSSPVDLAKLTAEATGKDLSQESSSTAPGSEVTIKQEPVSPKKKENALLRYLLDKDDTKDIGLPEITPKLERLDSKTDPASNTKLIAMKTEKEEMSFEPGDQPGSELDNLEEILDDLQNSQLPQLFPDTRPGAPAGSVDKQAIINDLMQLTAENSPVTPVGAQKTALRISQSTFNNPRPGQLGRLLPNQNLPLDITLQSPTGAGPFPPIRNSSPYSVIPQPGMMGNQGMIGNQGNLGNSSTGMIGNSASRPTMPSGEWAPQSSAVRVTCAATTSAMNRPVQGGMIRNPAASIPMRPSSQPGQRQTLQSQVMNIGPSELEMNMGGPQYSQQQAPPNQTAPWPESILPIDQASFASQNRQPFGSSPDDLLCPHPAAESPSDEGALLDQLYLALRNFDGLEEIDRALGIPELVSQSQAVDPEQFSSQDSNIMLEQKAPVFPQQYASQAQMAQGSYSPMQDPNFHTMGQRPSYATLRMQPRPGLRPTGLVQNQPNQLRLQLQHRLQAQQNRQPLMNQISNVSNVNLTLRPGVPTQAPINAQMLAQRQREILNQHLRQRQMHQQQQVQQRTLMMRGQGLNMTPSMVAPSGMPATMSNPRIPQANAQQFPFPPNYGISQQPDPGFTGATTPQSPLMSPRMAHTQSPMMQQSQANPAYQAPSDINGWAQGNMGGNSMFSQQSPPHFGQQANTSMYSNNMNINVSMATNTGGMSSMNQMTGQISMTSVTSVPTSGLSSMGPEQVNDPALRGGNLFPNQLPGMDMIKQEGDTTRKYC

[5] = biological target: Peroxisome proliferator-activated receptor gamma/Nuclear receptor coactivator 1 (Homo sapiens, UniProt P37231); format: functional;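 further: agonist potency as compounds enhance coactivator SRC-1 recruitment to PPARgamma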
Chain of Peroxisome proliferator-activated receptor gamma/Nuclear receptor coactivator 1 (P37231 whole entry): as the sequence (P37231 whole entry) above
Chain of Peroxisome proliferator-activated receptor gamma/Nuclear receptor coactivator 1 (Q15788 whole entry, further chain): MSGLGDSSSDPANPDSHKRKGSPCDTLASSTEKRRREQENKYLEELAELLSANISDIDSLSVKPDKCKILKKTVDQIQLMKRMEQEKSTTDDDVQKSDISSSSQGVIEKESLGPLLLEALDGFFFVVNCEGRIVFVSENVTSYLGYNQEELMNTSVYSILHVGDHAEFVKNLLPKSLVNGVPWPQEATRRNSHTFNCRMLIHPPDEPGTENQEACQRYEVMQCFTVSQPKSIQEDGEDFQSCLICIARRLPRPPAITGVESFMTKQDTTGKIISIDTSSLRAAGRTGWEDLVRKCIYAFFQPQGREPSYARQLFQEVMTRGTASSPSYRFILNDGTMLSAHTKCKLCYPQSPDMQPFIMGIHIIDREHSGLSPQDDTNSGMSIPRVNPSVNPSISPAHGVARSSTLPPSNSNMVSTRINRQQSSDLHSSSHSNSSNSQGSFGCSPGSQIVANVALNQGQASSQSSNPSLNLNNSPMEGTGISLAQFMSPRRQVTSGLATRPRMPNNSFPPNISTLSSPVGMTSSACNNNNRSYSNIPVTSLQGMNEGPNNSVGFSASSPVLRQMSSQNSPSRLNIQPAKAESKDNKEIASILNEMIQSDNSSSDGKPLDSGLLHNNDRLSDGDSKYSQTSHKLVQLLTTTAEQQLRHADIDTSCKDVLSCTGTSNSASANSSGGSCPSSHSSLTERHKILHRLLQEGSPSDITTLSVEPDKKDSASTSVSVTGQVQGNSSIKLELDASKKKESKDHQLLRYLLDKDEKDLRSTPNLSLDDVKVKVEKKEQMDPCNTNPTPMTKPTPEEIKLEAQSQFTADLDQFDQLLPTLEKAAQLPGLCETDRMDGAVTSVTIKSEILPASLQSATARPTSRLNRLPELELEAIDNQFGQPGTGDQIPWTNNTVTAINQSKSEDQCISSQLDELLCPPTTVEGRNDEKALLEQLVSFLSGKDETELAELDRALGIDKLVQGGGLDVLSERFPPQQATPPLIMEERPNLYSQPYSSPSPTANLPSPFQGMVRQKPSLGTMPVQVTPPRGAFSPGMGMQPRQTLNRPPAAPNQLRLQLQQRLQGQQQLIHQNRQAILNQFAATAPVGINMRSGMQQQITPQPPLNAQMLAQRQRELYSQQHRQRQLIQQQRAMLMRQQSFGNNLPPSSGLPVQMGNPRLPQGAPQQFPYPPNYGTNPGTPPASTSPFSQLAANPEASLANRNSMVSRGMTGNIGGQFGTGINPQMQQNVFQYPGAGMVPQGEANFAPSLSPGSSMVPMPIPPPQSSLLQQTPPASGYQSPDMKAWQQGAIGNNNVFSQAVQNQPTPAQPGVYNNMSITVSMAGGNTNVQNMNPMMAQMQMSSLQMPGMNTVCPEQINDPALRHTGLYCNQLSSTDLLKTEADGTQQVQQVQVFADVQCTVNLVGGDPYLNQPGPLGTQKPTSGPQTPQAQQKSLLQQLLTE

[6] = biological target: Peroxisome proliferator-activated receptor gamma/Nuclear receptor coactivator 3 (Homo sapiens, UniProt P37231); format: functional;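 further: agonist potency for raising coactivator recruitment to the receptor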
[7] = biological target: T3, Corticotropin-releasing factor receptor 2/Corticotropin-releasing factor-binding protein (Homo sapiens, UniProt P24387+Q13324); assay: Dose Response confirmation of uHTS hits for small molecule antagonists of the CRF-binding protein and CRF-R2 receptor complex.; format: functional; settings: read-out: IC50_Mean
T3 sequence (Q13324 whole entry): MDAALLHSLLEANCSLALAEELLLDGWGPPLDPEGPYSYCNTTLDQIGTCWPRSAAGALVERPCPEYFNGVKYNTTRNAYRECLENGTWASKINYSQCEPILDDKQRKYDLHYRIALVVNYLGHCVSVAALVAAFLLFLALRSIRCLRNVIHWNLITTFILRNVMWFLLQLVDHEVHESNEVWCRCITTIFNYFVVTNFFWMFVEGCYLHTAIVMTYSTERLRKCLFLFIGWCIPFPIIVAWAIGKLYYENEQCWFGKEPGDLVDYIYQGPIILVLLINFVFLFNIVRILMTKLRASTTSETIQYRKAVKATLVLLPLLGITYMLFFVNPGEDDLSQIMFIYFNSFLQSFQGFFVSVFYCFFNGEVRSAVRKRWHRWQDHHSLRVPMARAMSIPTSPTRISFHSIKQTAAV
T3 sequence (P24387 whole entry): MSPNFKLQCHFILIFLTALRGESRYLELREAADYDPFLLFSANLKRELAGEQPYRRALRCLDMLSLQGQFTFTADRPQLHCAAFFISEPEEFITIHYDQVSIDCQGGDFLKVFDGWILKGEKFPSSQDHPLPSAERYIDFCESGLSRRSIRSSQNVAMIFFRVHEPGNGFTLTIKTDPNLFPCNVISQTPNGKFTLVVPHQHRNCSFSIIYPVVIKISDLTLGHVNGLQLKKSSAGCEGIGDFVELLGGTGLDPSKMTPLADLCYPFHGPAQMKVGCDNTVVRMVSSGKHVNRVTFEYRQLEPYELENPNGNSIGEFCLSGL

[8] = biological target: T3, Corticotropin-releasing factor receptor 2/Corticotropin-releasing factor-binding protein; assay: activators of CRF receptor 2 with binding protein – uHTS hits, confirmation (AID 602473); format: functional; settings: read-out: EC50_Mean
[9] = CRF-BP/CRF-R2 complex antagonists, dose response, cell-based, uHTS hits, 384-well (AID 651639); format: functional, Homo sapiens; settings: read-out: IC50_Mean
[10] = Luminescence Cell-Based Dose Confirmation HTS to Identify Activators of 5'UTR Stem-Loop Driven Alpha-Synuclein mRNA Translation in H4 Neuroglioblastoma Cells. [Related pubchem assays: 1829 (Project Summary), 1814 (Primary HTS)]; format: functional
[11] = Luminescence Cell-Based Dose Response HTS to Identify Activators of Luciferase Translation or Activity in H4 […] Cells. [Related pubchem assays: 1829 (Project Summary), 1814 (Primary HTS)]; format: functional
H4 = assay: Luminescence Cell-Based Dose Response HTS to Identify Activators of 5'UTR Stem-Loop Driven Prion Protein mRNA Translation in H4 Neuroglioblastoma Cells. [Related pubchem assays: 1829 (Project Summary), 1814 (Primary HTS)]; format: functional; settings: Homo sapiens
[12] = inhibitors of Vif binding to APOBEC3G peptide, primary screen, biochemical, TR-FRET, GST-Vif 1-94, biotin-A3G peptide, dose response retest (AID 1117319); format: functional;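 further: TR-FRET signal of purified GST-Vif binding a biotinylated A3G peptide; inhibitors lower the FRET signal by blocking Vif and A3G binding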
[13] = biological target: Mitogen-activated protein kinase 10 (Homo sapiens, UniProt P53779); assay: Dose response biochemical screening assay for inhibitors of c-Jun N-Terminal Kinase 3 (JNK3). [Related pubchem assays: 746 ]
Chain of Mitogen-activated protein kinase 10 (P53779 whole entry): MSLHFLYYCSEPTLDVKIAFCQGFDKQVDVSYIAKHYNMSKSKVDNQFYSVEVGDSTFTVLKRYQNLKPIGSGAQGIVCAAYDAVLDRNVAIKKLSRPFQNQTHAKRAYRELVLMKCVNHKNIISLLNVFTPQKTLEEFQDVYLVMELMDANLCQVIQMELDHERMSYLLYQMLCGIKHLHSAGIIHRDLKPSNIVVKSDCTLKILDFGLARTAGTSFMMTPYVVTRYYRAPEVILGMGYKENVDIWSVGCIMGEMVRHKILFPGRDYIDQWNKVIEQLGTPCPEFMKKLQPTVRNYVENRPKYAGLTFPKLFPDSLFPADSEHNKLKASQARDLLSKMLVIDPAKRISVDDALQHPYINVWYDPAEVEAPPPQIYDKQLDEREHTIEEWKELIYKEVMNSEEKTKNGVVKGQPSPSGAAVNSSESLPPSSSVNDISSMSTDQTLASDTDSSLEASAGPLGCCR

H9c2 = assay: cells; format: functional, cell-based; settings: Rattus norvegicus, H9c2, Myocardium
[14] = biological target: T4, DNA repair protein RAD52 homolog (Homo sapiens, UniProt P43351); format: functional, biochemical
T4 sequence (P43351 whole entry): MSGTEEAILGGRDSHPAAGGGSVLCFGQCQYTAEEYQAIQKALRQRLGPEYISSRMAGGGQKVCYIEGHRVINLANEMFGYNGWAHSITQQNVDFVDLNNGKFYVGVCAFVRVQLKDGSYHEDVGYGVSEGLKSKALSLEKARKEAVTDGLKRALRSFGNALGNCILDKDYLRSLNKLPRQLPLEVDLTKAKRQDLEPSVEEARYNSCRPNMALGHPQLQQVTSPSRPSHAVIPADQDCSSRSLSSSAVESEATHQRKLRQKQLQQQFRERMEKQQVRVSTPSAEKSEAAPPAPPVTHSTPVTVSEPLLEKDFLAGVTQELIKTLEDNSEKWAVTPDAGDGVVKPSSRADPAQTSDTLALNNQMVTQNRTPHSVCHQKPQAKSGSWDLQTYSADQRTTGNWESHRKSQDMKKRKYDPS

[15] = biological target: T5, Rac GTPase-activating protein 1 (Homo sapiens, UniProt Q9H0H5); assay: MgcRacGAP GTPase-activating activity inhibitors, confirmation, biochemical, ADP Hunter fluorescence, primary and confirmatory (AID 624330); format: functional
T5 sequence (Q9H0H5 whole entry): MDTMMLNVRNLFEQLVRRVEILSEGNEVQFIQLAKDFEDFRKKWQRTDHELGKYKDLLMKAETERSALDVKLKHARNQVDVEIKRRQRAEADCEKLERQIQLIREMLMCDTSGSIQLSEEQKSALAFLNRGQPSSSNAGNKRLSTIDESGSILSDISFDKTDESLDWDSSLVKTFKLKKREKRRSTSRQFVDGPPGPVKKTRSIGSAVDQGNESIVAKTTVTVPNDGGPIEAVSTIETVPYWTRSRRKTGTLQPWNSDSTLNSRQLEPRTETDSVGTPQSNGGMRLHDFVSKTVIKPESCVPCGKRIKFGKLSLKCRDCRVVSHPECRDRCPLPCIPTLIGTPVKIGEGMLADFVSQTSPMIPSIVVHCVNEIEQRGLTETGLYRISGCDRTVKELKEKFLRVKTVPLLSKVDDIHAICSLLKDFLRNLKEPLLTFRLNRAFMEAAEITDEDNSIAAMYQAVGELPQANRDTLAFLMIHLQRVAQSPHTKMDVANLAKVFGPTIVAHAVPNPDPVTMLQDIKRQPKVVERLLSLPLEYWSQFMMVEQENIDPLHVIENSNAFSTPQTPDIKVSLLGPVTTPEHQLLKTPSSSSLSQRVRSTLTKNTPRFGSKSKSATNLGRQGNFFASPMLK

[16] = inhibitors of intracellular T. cruzi replication, confirmation, NIH3T3 host cells, beta-gal luminescence (AID 2044); format: functional, cell-based;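 further: intracellular parasites grown in NIH/3T3 mouse fibroblasts as host cells; luminescent beta-galactosidase reporter signal from transgenic T. cruzi replicating inside host cells; inhibitors lower the luminescence signal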
[17] = cytotoxicity toward NIH3T3 fibroblasts, dose response, counter-screen, cell-based, ATP luminescence, mouse fibroblasts (AID 2010); format: functional;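 further: cells exposed to compound for about 90 hours before reading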
[18] = biological target: Eukaryotic translation initiation factor 4E (Mus musculus, UniProt P63073); assay: eIF4E–eIF4G protein interaction inhibitors, dose response, biochemical, TR-FRET (AID 855); format: functional;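 further: potency for disrupting eIF4E binding to eIF4GI seen as loss of FRET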
[19] = biological target: T6, Short transient receptor potential channel 4 (Mus musculus, UniProt Q9QUQ5); assay: mouse TRPC4 channel activators, dose response, cell-based, HEK293 TRPC4/mu-opioid, Fluo-4 calcium (AID 434937); format: functional
T6 sequence (Q9QUQ5 whole entry): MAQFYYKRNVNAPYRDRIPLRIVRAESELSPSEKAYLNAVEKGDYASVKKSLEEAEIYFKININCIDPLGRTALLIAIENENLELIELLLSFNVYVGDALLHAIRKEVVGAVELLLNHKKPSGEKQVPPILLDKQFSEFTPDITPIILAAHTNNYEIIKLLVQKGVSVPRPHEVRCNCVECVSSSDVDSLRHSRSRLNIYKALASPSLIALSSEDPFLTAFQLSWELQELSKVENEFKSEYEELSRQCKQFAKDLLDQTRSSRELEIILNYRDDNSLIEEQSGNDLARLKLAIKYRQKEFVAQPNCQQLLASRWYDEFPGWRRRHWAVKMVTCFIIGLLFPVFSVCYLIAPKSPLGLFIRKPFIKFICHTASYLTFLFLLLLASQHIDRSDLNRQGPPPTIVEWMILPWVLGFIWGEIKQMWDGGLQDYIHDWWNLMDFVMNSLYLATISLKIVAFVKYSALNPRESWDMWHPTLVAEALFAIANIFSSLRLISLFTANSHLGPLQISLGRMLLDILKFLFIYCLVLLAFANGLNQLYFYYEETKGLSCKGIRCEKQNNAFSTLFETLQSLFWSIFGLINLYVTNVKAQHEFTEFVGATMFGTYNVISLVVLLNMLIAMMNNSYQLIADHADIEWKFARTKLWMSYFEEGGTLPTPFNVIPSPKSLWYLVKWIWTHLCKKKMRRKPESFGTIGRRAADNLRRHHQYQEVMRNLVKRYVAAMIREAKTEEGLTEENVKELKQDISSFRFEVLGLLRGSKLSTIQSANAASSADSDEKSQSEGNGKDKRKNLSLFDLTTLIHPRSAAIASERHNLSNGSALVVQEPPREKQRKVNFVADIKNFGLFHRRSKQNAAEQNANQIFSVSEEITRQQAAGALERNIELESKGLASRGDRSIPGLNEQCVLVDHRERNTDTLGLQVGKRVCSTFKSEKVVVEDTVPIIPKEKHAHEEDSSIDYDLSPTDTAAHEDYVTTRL

Cytochrome P450 2C19 = Cytochrome P450 2C19 (Homo sapiens, UniProt P33261); assay: Cytochrome panel assay with activity outcomes. Panel member name: p450-cyp2c19 Compounds with AC50 equal or less than 10 uM are considered active; format: functional
Chain of Cytochrome P450 2C19 (P33261 whole entry): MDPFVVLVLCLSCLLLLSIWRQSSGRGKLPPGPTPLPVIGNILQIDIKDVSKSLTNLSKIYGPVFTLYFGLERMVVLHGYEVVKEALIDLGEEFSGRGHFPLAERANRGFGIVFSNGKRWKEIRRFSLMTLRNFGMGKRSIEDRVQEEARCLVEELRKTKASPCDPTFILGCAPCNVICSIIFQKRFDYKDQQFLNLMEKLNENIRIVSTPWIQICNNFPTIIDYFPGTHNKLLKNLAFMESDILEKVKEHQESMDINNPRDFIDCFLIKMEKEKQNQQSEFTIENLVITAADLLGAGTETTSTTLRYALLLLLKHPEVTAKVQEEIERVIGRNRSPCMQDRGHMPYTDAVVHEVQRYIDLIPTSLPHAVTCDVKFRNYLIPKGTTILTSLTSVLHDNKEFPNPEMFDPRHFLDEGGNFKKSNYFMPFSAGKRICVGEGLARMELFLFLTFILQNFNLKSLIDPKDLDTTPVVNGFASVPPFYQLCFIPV

cells [20] = format: functional, cell-based
cells [21] = format: functional, cell-based; remark: listed apart in the source

## CC(C)n1c(=S)[nH]c2scc(-c3cccs3)c2c1=O
[1]
  IC50: 18.2 µM (not active)
Vero
  CC50: > 40 µM (active)
[2]
  IC50: 13.5 µM (active)
[3]
  IC50: 34 µM (active)

## CC(C)CNC(=O)COC(=O)c1ccccc1OCC(=O)Nc1ccc(Br)cc1
[4]
  EC50: > 79.4 µM (not active)
[5]
  EC50: > 79.4 µM (not active)
[6]
  EC50: > 79.4 µM (not active)

## Cc1nn(-c2ccccc2)c(N)c1Sc1ccc([N+](=O)[O-])cc1
[7]
  IC50: < 0.368 µM (active)
[8]
  EC50: > 53 µM (inactive)
[9]
  IC50: 12.8 µM (active)

## Cc1ccc(-c2csc(NC(=O)Cc3cccs3)n2)cc1C
[10]
  EC50: 10.2 µM (active)
[11]
  EC50: 28.7 µM (active)
H4
  EC50: 15.1 µM (active)
[12]
  IC50: > 100 µM (active)

## COc1ccc(COC(=O)c2[nH]nc3ccccc23)cc1F
[13]
  IC50: 11.4 µM (not active)

## COc1ccccc1OCc1nc2ccccc2[nH]1
[4]
  EC50: > 79.4 µM (not active)
[5]
  EC50: > 79.4 µM (not active)
[6]
  EC50: > 79.4 µM (not active)

## Cn1ncc2c(NCc3ccccc3)ncnc21
[13]
  IC50: > 31 µM (not active)

## O=C(N/C(=C/c1ccc(Cl)cc1)c1nc2ccccc2[nH]1)c1ccco1
[12]
  IC50: > 100 µM (active)

## CN(C)CCCNc1ccc(-c2nnc(O)c3ccccc23)cc1[N+](=O)[O-]
H9c2
  IC50: 13.9 µM (active)
[14]
  AC50: 20.5 µM (active)

## COc1cc(C=C2C(=O)c3ccccc3C2=O)cc(OC)c1OC
[7]
  IC50: 1.59 µM (active)
[8]
  EC50: > 53 µM (inactive)
[9]
  IC50: 1.46 µM (active)
[15]
  IC50: 126 µM (active)

## CN1CCN(CCCNC(=O)c2ccc(/C=C3\Sc4ccccc4N(Cc4ccccc4F)C3=O)cc2)CC1
[16]
  EC50: 0.3 µM (active)
[17]
  EC50: 6.91 µM (active)
[18]
  IC50: 50 µM (inactive)
[14]
  AC50: 5.23 µM (active)

## O=C1CC(c2ccco2)CC(=O)C1=CNc1ccc(Br)cc1 (configuration not stated)
[12]
  IC50: > 100 µM (active)

## Cc1sc(NC(=O)c2ccccc2)c(C(=O)NCCN(C)C)c1C
[19]
  EC50: 3.35 µM (active)
Cytochrome P450 2C19
  AC50: inconclusive
[12]
  IC50: > 100 µM (active)

## O=C(N[C@H](C(=O)N1CCC[C@H]1C(=O)NCCc1ccccc1Cl)c1ccccc1)c1cccs1
Cells [20]
  IC50: > 29.9 µM (inactive)
Cells [21]
  EC50: > 29.9 µM (inactive)

## COc1cc2c(cc1OC)CN1CCc3cc(OC)c(OC)cc3C1C2 (configuration not stated)
[14]
  AC50: 4.49 µM (active)
